These results are taken from patent publication US20260184663A1, “INDENE COMPOUNDS, PHARMACEUTICAL COMPOSITIONS THEREOF, AND THEIR THERAPEUTIC APPLICATIONS” (NucMito Pharmaceuticals co. Ltd., priority 2022, published 2026).

What all share (format): cell-based
The subject of one assay is SW480 (colon cancer). Description: Antiproliferative activity (CCK-8 cell viability), SW480. The settings on record: Homo sapiens, 72 h, read-out: Antiproliferative activity in cancerous cells, SW480 (inhibition of cell growth); for inhibition at 3.3 µM: Compound concentration: 3.3 μM; for inhibition at 10 µM: Compound concentration: 10 μM; for inhibition at 30 µM: Compound concentration: 30 μM. The method, boiled down:
(§1)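 Cells were seeded at 2,000-5,000/well (HeLa in MEM, HepG2 and SW480 in DMEM, A549 in F-12K, all with 10% FBS) and treated with compound at 3.3, 10 or 30 μM for 72 h at 37° C. CCK-8 was added for 4 h, absorbance was read at 450 nm, and viability was expressed relative to DMSO-treated wells.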

Another assay deals with HepG2 (liver cancer). As to the kind of experiment: Antiproliferative activity (CCK-8 cell viability), HepG2. The following applies: Homo sapiens, 72 h, read-out: Antiproliferative activity in cancerous cells, HepG2 (inhibition of cell growth); for inhibition at 3.3 µM: Compound concentration: 3.3 μM; for inhibition at 10 µM: Compound concentration: 10 μM; for inhibition at 30 µM: Compound concentration: 30 μM. The essentials: as §1

A further assay has as its system HeLa (cervical cancer). Description: Antiproliferative activity (CCK-8 cell viability), HeLa. The settings on record: Homo sapiens, 72 h, read-out: Antiproliferative activity in cancerous cells, HELA (inhibition of cell growth); for inhibition at 3.3 µM: Compound concentration: 3.3 μM; for inhibition at 10 µM: Compound concentration: 10 μM; for inhibition at 30 µM: Compound concentration: 30 μM. The essentials:
as §1

The subject of assay [1] is MDA-MB-231 (breast cancer). Description: Antiproliferative activity (CCK-8 cell viability), MDA-MB-231. The settings on record: Homo sapiens, 72 h, read-out: Antiproliferative activity in cancerous cells, MDA-MB-231 (inhibition of cell growth); for inhibition at 3.3 µM: Compound concentration: 3.3 μM; for inhibition at 10 µM: Compound concentration: 10 μM; for inhibition at 30 µM: Compound concentration: 30 μM. The essentials: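 In this CCK-8 viability assay, MDA-MB-231 cells maintained in Dulbecco's modified Eagle's medium containing 10% fetal bovine serum were placed in 96-well plates (2,000-5,000 cells/well) and treated with compound for 72 h at 37° C. A 4 h incubation with 10 μL CCK-8 followed, plates were read at 450 nm, and viability was expressed against DMSO vehicle wells across replicates.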

In assay [2] the test system is A549 (lung adenocarcinoma). As to the kind of experiment: Antiproliferative activity (CCK-8 cell viability), A549. The settings on record: Homo sapiens, 72 h, read-out: Antiproliferative activity in cancerous cells, A549 (inhibition of cell growth); for inhibition at 3.3 µM: Compound concentration: 3.3 μM; for inhibition at 10 µM: Compound concentration: 10 μM; for inhibition at 30 µM: Compound concentration: 30 μM. The method, boiled down: as §1

The test system of assay [3] is B16F10 (malignant melanoma). As to the kind of experiment: Antiproliferative activity (CCK-8 cell viability), B16F10. The settings on record: Mus musculus, 72 h, read-out: Antiproliferative activity in cancerous cells, B16F10 (inhibition of cell growth); for inhibition at 3.3 µM: B16-F10, Compound concentration: 3.3 μM; for inhibition at 10 µM: B16-F10, Compound concentration: 10 μM; for inhibition at 30 µM: B16-F10, Compound concentration: 30 μM. The essentials: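 Attached B16F10 cells in 96-well plates were incubated with compound at 37° C for 72 h, followed by 10 μL CCK-8 reagent per well and a further 4 h incubation. A multi-well plate reader measured absorbance at 450 nm. Percent viability across replicates was calculated against DMSO vehicle-treated cells.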

For assay [4], the system named is A431 (epidermoid carcinoma). As to the kind of experiment: Antiproliferative activity (CCK-8 cell viability), A431. The settings on record: Homo sapiens, 72 h, read-out: Antiproliferative activity in cancerous cells, A431 (inhibition of cell growth); for inhibition at 3.3 µM: A-431, Compound concentration: 3.3 μM; for inhibition at 10 µM: A-431, Compound concentration: 10 μM; for inhibition at 30 µM: A-431, Compound concentration: 30 μM. The essentials: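 Cell viability of compound-treated A431 cells was measured with a Cell Counting Kit-8. Each well received 10 μL of CCK-8 after 72 h of compound exposure, followed by 4 h incubation at 37° C. and a 450 nm plate-reader measurement. Percent viability was calculated relative to DMSO controls across replicates.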

`CC1=C(CC(=O)O)c2cc(F)ccc2/C1=C\c1ccc(C(=O)c2cc3ccccc3o2)cc1` [C309, (Z)-2-(1-(4-(Benzofuran-2-carbonyl)benzylidene)-5-fluoro-2-methyl-1H-inden-3-yl)acetic acid]: the inhibition – broadly, the drop in the measured response relative to a control, in per cent – at 3.3 µM with SW480 (colon cancer) is less than 30%; in the assay on HepG2 (liver cancer), less than 30%; in the assay with HeLa (cervical cancer) it was 30 to 50%; in assay [1] it was 30 to 50%; in assay [2], less than 30%; in assay [3], less than 30%. In addition, the inhibition at 3.3 µM in assay [4] lay within 30 to 50%. Further, the inhibition at 10 µM was not below 50% with SW480 (colon cancer); not below 50% in the assay on HepG2 (liver cancer); not below 50% in the assay with HeLa (cervical cancer); 30 to 50% in assay [1]; 30 to 50% in assay [2]; not below 50% in assay [3]. Moreover, in assay [4], the inhibition at 10 µM is not below 50%. The inhibition at 30 µM (with SW480 (colon cancer); in the assay on HepG2 (liver cancer); in the assay with HeLa (cervical cancer); in assay [1]; in assay [2]; in assay [3]) was not below 50% in each case. For the same compound, the inhibition at 30 µM in assay [4] is not below 50%.

As for `CC1=C(CC(=O)O)c2cc(F)ccc2/C1=C\c1cccc(C(O)c2ccccc2)c1` (stereo not drawn) [C310, (Z)-2-(5-Fluoro-1-(3-(hydroxy(phenyl)methyl)benzylidene)-2-methyl-1H-inden-3-yl)acetic acid], the inhibition at 3.3 µM in the assay on SW480 (colon cancer) is not below 50%; in the assay with HepG2 (liver cancer), 30 to 50%; in the assay on HeLa (cervical cancer) it was not below 50%; in assay [1], less than 30%; in assay [2], 30 to 50%; in assay [3] it was less than 30%. For the same compound, the inhibition at 3.3 µM in assay [4] is not below 50%. Also, the inhibition at 10 µM was not below 50% with SW480 (colon cancer); not below 50% in the assay on HepG2 (liver cancer); not below 50% in the assay on HeLa (cervical cancer); not below 50% in assay [1]; 30 to 50% in assay [2]; 30 to 50% in assay [3]. Also, the inhibition at 10 µM in assay [4] lay in the range of 30 to 50%. Further, the inhibition at 30 µM (in the assay on SW480 (colon cancer); in the assay on HepG2 (liver cancer); with HeLa (cervical cancer); in assay [1]; in assay [2]; in assay [3]) was not below 50% each time. The inhibition at 30 µM in assay [4] was not below 50%.

`CC1=C(CC(=O)O)c2cc(F)ccc2/C1=C\c1ccc(Cc2cc3ccccc3o2)cc1` [C311, (Z)-2-(1-(4-(Benzofuran-2-ylmethyl)benzylidene)-5-fluoro-2-methyl-1H-inden-3-yl)acetic acid]: the inhibition at 3.3 µM in the assay with SW480 (colon cancer) was less than 30%; with HepG2 (liver cancer) it was not below 50%; with HeLa (cervical cancer), less than 30%; in assay [1] it was less than 30%; in assay [2] it was less than 30%; in assay [3], not below 50%. Also, the inhibition at 3.3 µM in assay [4] fell in the range of 30 to 50%. In addition, the inhibition at 10 µM is less than 30% in the assay with SW480 (colon cancer); not below 50% in the assay with HepG2 (liver cancer); less than 30% in the assay with HeLa (cervical cancer); not below 50% in assay [1]; less than 30% in assay [2]; not below 50% in assay [3]. In addition, the inhibition at 10 µM in assay [4] is 30 to 50%. In addition, the inhibition at 30 µM with SW480 (colon cancer) was less than 30%; with HepG2 (liver cancer), not below 50%; with HeLa (cervical cancer) it was 30 to 50%; in assay [1], not below 50%; in assay [2] it was less than 30%; in assay [3], not below 50%. For the same compound, in assay [4], the inhibition at 30 µM was in the range of 30 to 50%.

`CC1=C(CC(=O)O)c2cc(F)ccc2/C1=C\c1ccc(Cc2cc3ccccc3s2)cc1` [C312, (Z)-2-(1-(4-(Benzo[b]thiophen-2-ylmethyl)benzylidene)-5-fluoro-2-methyl-1H-inden-3-yl)acetic acid]: the inhibition at 3.3 µM in the assay with SW480 (colon cancer) was not below 50%; in the assay with HepG2 (liver cancer), not below 50%; in the assay with HeLa (cervical cancer), not below 50%; in assay [1], 30 to 50%; in assay [2], less than 30%; in assay [3], not below 50%. Further, in assay [4], the inhibition at 3.3 µM was not below 50%. Moreover, the inhibition at 10 µM (with SW480 (colon cancer); with HepG2 (liver cancer); with HeLa (cervical cancer); in assay [1]; in assay [2]; in assay [3]) was not below 50% in each case. In addition, the inhibition at 10 µM in assay [4] was not below 50%. Besides, the inhibition at 30 µM (in the assay with SW480 (colon cancer); in the assay on HepG2 (liver cancer); in the assay with HeLa (cervical cancer); in assay [1]; in assay [2]; in assay [3]) was not below 50% throughout. In addition, the inhibition at 30 µM in assay [4] was not below 50%.

Turning to `CC1=C(CC(=O)O)c2cc(F)ccc2/C1=C\c1cccc(C2(c3ccccc3)SCCS2)c1` [C352, (Z)-2-(5-Fluoro-2-methyl-1-(3-(2-phenyl-1,3-dithiolan-2-yl)benzylidene)-1H-inden-3-yl)acetic acid], the inhibition at 3.3 µM in the assay with SW480 (colon cancer) is less than 30%; with HepG2 (liver cancer), less than 30%; in the assay with HeLa (cervical cancer) it was less than 30%; in assay [1] it was 30 to 50%; in assay [2], less than 30%; in assay [3] it was less than 30%. Also, the inhibition at 3.3 µM in assay [4] was less than 30%. Further, the inhibition at 10 µM (with SW480 (colon cancer); in the assay on HepG2 (liver cancer); with HeLa (cervical cancer); in assay [1]; in assay [2]; in assay [3]) was not below 50% throughout. For the same compound, in assay [4], the inhibition at 10 µM was not below 50%. The inhibition at 30 µM (with SW480 (colon cancer); in the assay on HepG2 (liver cancer); with HeLa (cervical cancer); in assay [1]; in assay [2]; in assay [3]) was not below 50% in each case. Besides, the inhibition at 30 µM in assay [4] was not below 50%.
